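Protocol summary: plate cells (96-well), add compound at 5 concentrations, incubate 48 h, interpolate endpoints linearly. GI50 is the concentration that inhibits growth by half.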 The source made the active and inactive calls. No stated cut-off is given here; in the data, active = GI50 up to about 1.1 µM and inactive = higher. Bounds are passed on as bounds.

Results on 10 molecules are retold here after ChEMBL document CHEMBL1201862, “PubChem BioAssay data set” (2004).

Among the test systems are RPMI-8226; OVCAR-5; OVCAR-3; COLO 205; HOP-92; U-251; MCF7; MOLT-4; SN12C; SNB-75; OVCAR-4; SK-OV-3; IGROV-1; K562; RXF 393; SK-MEL-2; HT-29; Malme-3M; SNB-19; NCI-H460.
What all share (assay): NCI anticancer screen, dose series, 48 h

`Cc1ccccc1C1=C/C(=C(\SS/C(C(=O)c2ccc(OCC(=O)O)c(Cl)c2Cl)=C2\C=C(c3ccccc3C)SS2)C(=O)c2ccc(OCC(=O)O)c(Cl)c2Cl)SS1`: the GI50 in the assay on RPMI-8226 is 21.5 µM (inactive); in the assay on OVCAR-5 it was 51.1 µM (inactive); in the assay on OVCAR-3, 16.5 µM (inactive); with COLO 205, 12.2 µM (inactive); in the assay on HOP-92 it was 5.51 µM (inactive); in the assay with U-251, 8.43 µM (inactive). Besides, the GI50 with MCF7 is 31.4 µM (inactive); in the assay on MOLT-4, 19.9 µM (inactive); in the assay on SN12C, 20.1 µM (inactive); in the assay on SNB-75, 34.7 µM (inactive); in the assay with OVCAR-4 it was 21.1 µM (inactive); in the assay with SK-OV-3, 39.9 µM (inactive). The GI50 with IGROV-1 is 16.4 µM (inactive); with K562 it was 8.65 µM (inactive); with RXF 393, 22.4 µM (inactive); in the assay on SK-MEL-2 it was 21.4 µM (inactive); in the assay with HT-29 it was 33.1 µM (inactive); with Malme-3M it was 40.1 µM (inactive). Further, the GI50 with SNB-19 was 22.5 µM (inactive); in the assay with NCI-H460, 26.4 µM (inactive).

As for `CC[N+]1(C)CCC(O)(/C=C/c2ccccc2)C(C(=O)/C=C/c2ccccc2)C1` (stereo not given), the GI50 in the assay on RPMI-8226 is 0.706 µM (active); with OVCAR-5, 18.1 µM (inactive); in the assay on OVCAR-3, 9.04 µM (inactive); in the assay on COLO 205, 3.44 µM (inactive); with HOP-92 it was 9.46 µM (inactive); with U-251 it was 8 µM (inactive). Further, the GI50 in the assay on MCF7 was 3.05 µM (inactive); in the assay on MOLT-4, 2.13 µM (inactive); with SN12C, 7.23 µM (inactive); in the assay on SNB-75, 14.7 µM (inactive); with OVCAR-4, 13.7 µM (inactive); with SK-OV-3, 18.2 µM (inactive). Also, the GI50 with IGROV-1 was 18.7 µM (inactive); in the assay with K562, 2.7 µM (inactive); with RXF 393 it was 7.62 µM (inactive); with SK-MEL-2 it was 19.8 µM (inactive); with HT-29, 7.59 µM (inactive); in the assay with Malme-3M it was 15 µM (inactive). For the same molecule, the GI50 was 15.3 µM (inactive) with SNB-19 and 15 µM (inactive) with NCI-H460.

As to `COC12OC3CC4(C)C(=CC3OC(OC(C)C1O)C2O)CCC1C4CCC2(C)C(c3ccc(=O)oc3)CCC12O` (stereo not given), the GI50 with RPMI-8226 was 0.00177 µM (active); in the assay on OVCAR-5, 0.00132 µM (active); with OVCAR-3, 0.00155 µM (active); with COLO 205 it was 0.00196 µM (active); in the assay on HOP-92, 0.00535 µM (active); in the assay on U-251 it was 0.00142 µM (active). For the same molecule, the GI50 in the assay with MCF7 is 0.00178 µM (active); in the assay with MOLT-4 it was 0.00105 µM (active); in the assay with SN12C, < 0.001 µM (active); in the assay with SNB-75 it was 0.00202 µM (active); with OVCAR-4, 0.00126 µM (active); in the assay on SK-OV-3, 0.00289 µM (active). Moreover, the GI50 was 0.00171 µM (active) in the assay on IGROV-1; 0.00237 µM (active) with K562; 0.00234 µM (active) in the assay on RXF 393; 0.00205 µM (active) in the assay with SK-MEL-2; 0.00139 µM (active) in the assay on HT-29; 0.00168 µM (active) in the assay on Malme-3M. Further, the GI50 is 0.00213 µM (active) in the assay with SNB-19 and 0.0014 µM (active) with NCI-H460.

For `CC(C)c1ccc(O)c(=O)c(O)c1.CC(C)c1ccc(O)c(=O)cc1.CC(C)c1cccc(=O)c(O)c1.CC(C)c1ccccc(=O)c1O`, the GI50 is 0.964 µM (active) with RPMI-8226; 3.11 µM (inactive) with OVCAR-5; 0.279 µM (active) in the assay with OVCAR-3; 2.77 µM (inactive) in the assay on COLO 205; 5.94 µM (inactive) in the assay with HOP-92; 0.491 µM (active) in the assay with U-251. In addition, the GI50 in the assay on MCF7 is 0.935 µM (active); with MOLT-4, 0.343 µM (active); in the assay on SN12C, 0.998 µM (active); in the assay on SNB-75, 2.02 µM (inactive); with OVCAR-4 it was 1.11 µM (active); in the assay on SK-OV-3, 4.37 µM (inactive). For the same molecule, the GI50 was 1.36 µM (inactive) with IGROV-1; 0.571 µM (active) in the assay on K562; 0.432 µM (active) in the assay with RXF 393; 0.204 µM (active) in the assay with SK-MEL-2; 0.509 µM (active) in the assay with HT-29; 1.43 µM (inactive) in the assay with Malme-3M. Also, the GI50 with SNB-19 is 3.4 µM (inactive); in the assay with NCI-H460 it was 0.191 µM (active).

With `COc1cc([C@H]2Oc3c(OC)cc(CCCO)cc3[C@@H]2CO)ccc1O` [DIHYDRODEHYDRODICONIFERY ALCOHOL], the GI50 was 55.1 µM (inactive) in the assay on RPMI-8226; > 100 µM (inactive) in the assay with OVCAR-5; > 100 µM (inactive) in the assay on OVCAR-3; > 100 µM (inactive) in the assay on COLO 205; 89.5 µM (inactive) in the assay on HOP-92; > 100 µM (inactive) in the assay on U-251. Besides, the GI50 in the assay on MCF7 was 37.2 µM (inactive); in the assay with MOLT-4, 51.6 µM (inactive); in the assay on SN12C, > 100 µM (inactive); in the assay with SNB-75, 44.9 µM (inactive); in the assay with OVCAR-4, 76.4 µM (inactive); with SK-OV-3, > 100 µM (inactive). Further, the GI50 in the assay on IGROV-1, in the assay with K562, with RXF 393, in the assay on SK-MEL-2, in the assay on HT-29 and in the assay on Malme-3M was > 100 µM (inactive) each time. Moreover, the GI50 with SNB-19 and in the assay with NCI-H460 was > 100 µM (inactive) each time.

Turning to `OCCCc1ccc2c(c1)[C@H](CO)[C@@H](c1ccc(O)cc1)O2`, the GI50 is 26 µM (inactive) in the assay with RPMI-8226; > 100 µM (inactive) with OVCAR-5; > 100 µM (inactive) in the assay on OVCAR-3; > 100 µM (inactive) with COLO 205; > 100 µM (inactive) in the assay with HOP-92; > 100 µM (inactive) with U-251. In addition, the GI50 in the assay with MCF7 was > 100 µM (inactive); in the assay on MOLT-4 it was 19.5 µM (inactive); in the assay with SN12C it was > 100 µM (inactive); with SNB-75, > 100 µM (inactive); in the assay on OVCAR-4, 16.8 µM (inactive); in the assay with SK-OV-3 it was > 100 µM (inactive). The GI50 in the assay on IGROV-1 was > 100 µM (inactive); with K562, > 100 µM (inactive); in the assay with RXF 393, > 100 µM (inactive); in the assay on SK-MEL-2, > 100 µM (inactive); in the assay with HT-29, > 100 µM (inactive); in the assay on Malme-3M, 13.8 µM (inactive). For the same molecule, the GI50 in the assay on SNB-19 and in the assay on NCI-H460 was > 100 µM (inactive) in each case.

In the case of `CC(=O)OCC(Br)C1(C)CCC(C(C)(C)Br)O1` (stereo not given), the GI50 with RPMI-8226 was > 100 µM (inactive); with OVCAR-5, > 100 µM (inactive); in the assay with OVCAR-3 it was 59.2 µM (inactive); with COLO 205, 51.2 µM (inactive); in the assay on HOP-92 it was 20.6 µM (inactive); with U-251, 73.5 µM (inactive). For the same molecule, the GI50 was 56.4 µM (inactive) with MCF7; 73.8 µM (inactive) in the assay with MOLT-4; 94.2 µM (inactive) in the assay on SN12C; 58.2 µM (inactive) with SNB-75; 11.2 µM (inactive) in the assay with OVCAR-4; > 100 µM (inactive) in the assay with SK-OV-3. In addition, the GI50 in the assay on IGROV-1 is 80.2 µM (inactive); in the assay on K562 it was > 100 µM (inactive); in the assay on RXF 393, 51.1 µM (inactive); in the assay on SK-MEL-2, 39.1 µM (inactive); in the assay on HT-29, 62.7 µM (inactive); in the assay on Malme-3M, 83.6 µM (inactive). Moreover, the results for the GI50 in the assay with SNB-19 and in the assay on NCI-H460 were > 100 µM (inactive) and 57.9 µM (inactive), respectively.

As for `COc1ccc(/C=C2\C[C@H]3[C@@H]4CCC5=C[C@@H](N6CCCC6)CC[C@]5(C)[C@H]4CC[C@]3(C)[C@H]2O)cc1`, the GI50 was 2.97 µM (inactive) in the assay with RPMI-8226; 4.81 µM (inactive) in the assay with OVCAR-5; 2.64 µM (inactive) in the assay with OVCAR-3; 1.67 µM (inactive) with COLO 205; 2.49 µM (inactive) in the assay with HOP-92; 2.77 µM (inactive) with U-251. Also, the GI50 is 1.93 µM (inactive) in the assay with MCF7; 2.86 µM (inactive) in the assay with MOLT-4; 4.8 µM (inactive) in the assay on SN12C; 4.97 µM (inactive) with SNB-75; 3.59 µM (inactive) in the assay with OVCAR-4; 5.18 µM (inactive) in the assay with SK-OV-3. Moreover, the GI50 with IGROV-1 is 4.28 µM (inactive); in the assay with K562, 2.16 µM (inactive); in the assay with RXF 393, 1.52 µM (inactive); with SK-MEL-2, 1.88 µM (inactive); with HT-29, 0.728 µM (active); with Malme-3M it was 2.61 µM (inactive). Besides, the values for the GI50 with SNB-19 and with NCI-H460 were 4.61 µM (inactive) and 2.49 µM (inactive), respectively.

With `C=C(CC)C(=O)c1ccc(OCC(=O)O)c(Cl)c1Cl` [ETHACRYNIC ACID], the GI50 with RPMI-8226 was 14.5 µM (inactive); with OVCAR-5 it was 29.8 µM (inactive); in the assay with OVCAR-3, 16.1 µM (inactive); in the assay with COLO 205, 19 µM (inactive); in the assay on HOP-92, 12.2 µM (inactive); with U-251 it was 16 µM (inactive). Besides, the GI50 in the assay with MCF7 was 6.05 µM (inactive); with MOLT-4, 20.2 µM (inactive); with SN12C it was 20 µM (inactive); in the assay on SNB-75, 21.8 µM (inactive); with OVCAR-4, 20 µM (inactive); with SK-OV-3, 48.1 µM (inactive). For the same molecule, the GI50 in the assay with IGROV-1 was 22 µM (inactive); with K562, 53 µM (inactive); in the assay on RXF 393, 18.2 µM (inactive); in the assay with SK-MEL-2, 17.1 µM (inactive); with HT-29, 17.9 µM (inactive); in the assay on Malme-3M, 16.9 µM (inactive). Moreover, the values for the GI50 with SNB-19 and in the assay with NCI-H460 were 15.6 µM (inactive) and 44.3 µM (inactive), respectively.

As to `CC(=O)n1nc(-c2[nH]c(C)c(-c3nn(C(C)=O)c(=S)o3)c2C)oc1=S`, the GI50 in the assay with RPMI-8226 is > 56.6 µM (inactive); in the assay on OVCAR-5 it was > 100 µM (inactive); in the assay with OVCAR-3, > 100 µM (inactive); in the assay on COLO 205 it was > 100 µM (inactive); in the assay with HOP-92 it was > 100 µM (inactive); in the assay on U-251, > 100 µM (inactive). The GI50 in the assay on MCF7 is > 100 µM (inactive); with MOLT-4 it was 6.89 µM (inactive); in the assay on SN12C, > 100 µM (inactive); in the assay with SNB-75, > 32.3 µM (inactive); with OVCAR-4, > 100 µM (inactive); with SK-OV-3, > 100 µM (inactive). For the same molecule, the GI50 was > 100 µM (inactive) in the assay on IGROV-1; > 100 µM (inactive) in the assay with K562; > 100 µM (inactive) in the assay on RXF 393; > 62.4 µM (inactive) with SK-MEL-2; > 100 µM (inactive) with HT-29; 30.1 µM (inactive) with Malme-3M. Moreover, the GI50 with SNB-19 and in the assay with NCI-H460 was > 100 µM (inactive) throughout.
